Read-outs that look alike come from different tables or passages of the source.
Experiments:
[1] = Activity assay of purified arginine deiminase; format: biochemical
Protocol: We attempted to express and purify the three ADI enzymes in E. coli. After numerous attempts, we were unable to express the M. hominis or P. putida enzymes in a soluble form. Each protein was expressed solely in inclusion bodies, under all conditions tested (FIG. 14A). Purification from inclusion bodies and refolding were also attempted, without success. In contrast, we were able to express and purify the P. aeruginosa ADI enzyme (average yield=40 mg per litre of bacterial culture).

[2] = GS activity assay coupled with PK/LDH (NADH oxidation, A340); format: biochemical; settings: 37° C., decrease of absorbance at 340 nm
Protocol: (§1) FIG. 3: GS activity assay. The assay was adapted from Shapiro et. al. The reaction mixture included 30 mM imidazole, 100 mM Na-glutamate, 8.5 mM adenosine 5′-triphosphate (ATP), 1 mM phosphoenolpyruvate (PEP), 60 mM magnesium chloride (MgCl2), 20 mM potassium chloride (KCl), 45 mM ammonium chloride (NH4Cl), 0.25 mM (3-nicotinamide adenine dinucleotide (NADH), 28 units pyruvate kinase/40 units L-lactic dehydrogenase (PK/LDH). The reactions were performed at 37° C. and rates were measured by the decrease of absorbance at 340 nm.
For preliminary experiments, glutamine synthetase from Escherichia coli (E. coli) was successfully expressed, purified and tested for activity. This assay took advantage of the biosynthetic reaction of GS (which produces ADP) coupled with lactate dehydrogenase and pyruvate kinase to oxidise NADH (Shapiro & Stadtman, 1970).
as §1, with “The” for “FIG. 3: GS activity assay. The assay was adapted from Shapiro et. al. The”, “0-nicotinamide” for “(3-nicotinamide”
The soluble GS enzymes were tested. […]

[3] = target: T1, Helicobacter pylori glutamine synthetase (HpGS), SEQ ID NO: 2 (Helicobacter pylori, UniProt P94845); assay: GS-BpsA coupled assay kinetics of HpGS for glutamate and ammonium (A590, indigoidine); format: biochemical; settings: 37° C., coupled with BpsA
T1 construct: BpsA-coupled assay
T1 sequence (P94845 1-481): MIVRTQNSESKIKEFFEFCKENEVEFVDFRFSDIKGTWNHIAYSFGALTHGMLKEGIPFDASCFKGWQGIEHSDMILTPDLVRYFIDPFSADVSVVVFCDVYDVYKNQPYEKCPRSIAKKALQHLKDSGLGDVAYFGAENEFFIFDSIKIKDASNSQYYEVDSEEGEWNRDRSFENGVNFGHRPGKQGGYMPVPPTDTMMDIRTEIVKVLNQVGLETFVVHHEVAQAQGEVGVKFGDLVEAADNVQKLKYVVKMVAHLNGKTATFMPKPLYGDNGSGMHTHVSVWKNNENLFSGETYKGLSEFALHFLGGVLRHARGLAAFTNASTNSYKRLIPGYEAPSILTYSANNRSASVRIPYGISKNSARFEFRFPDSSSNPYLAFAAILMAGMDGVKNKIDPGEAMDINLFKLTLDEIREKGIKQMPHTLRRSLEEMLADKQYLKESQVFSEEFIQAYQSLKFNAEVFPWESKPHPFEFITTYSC
Protocol: (§2) FIG. 6A: Sigmoidal kinetics data obtained when the GS from Helicobacter pylori (HpGS) is assayed in the presence of various concentrations of its substrate, glutamate. The concentration of GS and BpsA is 3 μM and 6 μM respectively. An optimised condition for the GS-BpsA assay was used. A range of glutamate concentrations (0-900 μM) was used in the assay. Rates were measured through the increase in absorbance at 590 nm at 37° C. Data are the mean values of three replicates and error bars indicate the standard error of the mean.
as §2, with “6B:” for “6A:”, “HpGS” for “the GS from Helicobacter pylori (HpGS)”, “ammonium.” for “glutamate.”, “0-900 μM NH4Cl” for “glutamate concentrations (0-900 μM)”
(§3) FIG. 21A: Amino acid sequence for Helicobacter pylori glutamine synthetase enzyme. SEQ ID NO: 2. The His-tag sequence used for the protein fusion is also shown.
(§4) Optimised ATP/pH and Mg^2+ conditions were utilised with varying concentrations of KCl (FIG. 5). A concentration of 10 mM KCl was chosen to be optimal based on this experiment. The final optimised reaction mixture for the GS-BpsA assay was determined to be 100 mM Tris Base pH 11.4, 15 mM ATP, 20 mM MgCl2, and 10 mM KCl.
(§5) Using optimised assay conditions for the GS-BpsA coupled assay, kinetics data for HpGS were collected for its substrates glutamate and ammonium. For these experiments, the concentrations of GS and BpsA were 3 μM and 6 μM respectively. Optimised conditions for the GS-BpsA assay were used. A range of 0-1000 μM glutamate concentration and 1000 μM NH4Cl was used in the assay. Rates were measured through the increase in absorbance for 5 minutes at 590 nm and 37° C.
(§6) GS enzymes have been previously found to display non-Michaelis-Menten, sigmoidal kinetics (Murray et al., 2013). As expected, the data were fit better by the Hill equation for cooperative enzymes than by the Michaelis-Menten equation (FIGS. 6A-6B). The Hill coefficient indicates the estimate of the number of active sites that are acting cooperatively, which has a value of approximately 2 for both substrates.

[4] = substrate: N[C@@H](CCC(=O)O)C(=O)O; assay: as above; format: biochemical, Helicobacter pylori; settings: coupled with BpsA, pH 11.4; for K0.5: Hill equation
Protocol: as §2
as §2, with “6B:” for “6A:”, “HpGS” for “the GS from Helicobacter pylori (HpGS)”, “ammonium.” for “glutamate.”, “0-900 μM NH4Cl” for “glutamate concentrations (0-900 μM)”
as §3, §4, §5, §6

[5] = substrate: N=C(N)NCCC[C@H](N)C(=O)O; assay: Michaelis-Menten kinetics of RcArgZ with arginine (glutamate dehydrogenase coupled assay, A340); format: biochemical, Rhodospirillum centenum; settings: other: 37° C., 0-3000 μM arginine, decrease in absorbance at 340 nm
Protocol: FIG. 17: Michaelis-Menten kinetics of RcArgZ with arginine. A range of 0-3000 μM arginine concentration was used in the assay. Rates were measured through the decrease in absorbance at 340 nm at 37° C. Data are the mean values of three replicates and error bars indicate the standard error of the mean.
FIG. 22A: Amino acid sequence for Rhodospirillum centenum arginine dihydrolase enzyme. SEQ ID NO: 3. This sequence is derived from the sequence listed as accession number B6IRA8 in the UniProt database, but with the deletion of amino acid residues 2 to 18 from the UniProt sequence. These residues were deleted because they were predicted to encode a disordered region in the polypeptide. The His-tag sequence used for the protein fusion is also shown.
For this reason, we ordered the gene for this isolated domain from a commercial gene synthesis company (Twist Bioscience). […]
RcArgZ activity was quantified in vitro by coupling it with glutamate dehydrogenase (GDH) in a spectrophotometric assay. […]
Therefore, a decrease in absorbance at 340 nm is directly relative to glutamate production, and because GDH is in excess in the reaction, it is directly relative to RcArgZ activity to produce ammonium from arginine.
Activity data for RcArgZ were collected across a range of arginine concentrations. […] Rates were measured through the decrease in absorbance at 340 nm at 37° C.

[6] = other: Biological Replicate 1, 37° C.
[7] = other: Biological Replicate 2, 37° C.

Q: For “P. aeruginosa ADI: Pseudomonas aeruginosa arginine deiminase enzyme expressed and purified from E. coli”, which “activity of purified arginine deiminase” value [1] is on record?
A: did not have any activity

Q: For “EcGS: glutamine synthetase from Escherichia coli, SEQ ID NO: 14”, which “GS activity (ATP hydrolysis) in PK/LDH assay” value [2] is on record?
A: only slightly active

Q: What does the source list for N [Ammonium, ammonium]?
A: kcat (estimated from Vmax) [3]: 0.8 ± 0.03 s⁻¹; Hill coefficient ([3]; Hill equation): 2.0; Km ([3]; read-out: Khalf (concentration of the substrate at the half-maximal velocity)): ~100 µM; kcat (ammonium varied) ([3]; Biological Replicate 1): 0.78 s⁻¹; Km ([3]; Biological Replicate 1, Hill equation, read-out: Khalf (ammonium)): 96 µM; kcat (ammonium varied) ([3]; Biological Replicate 2): 0.78 s⁻¹; Km ([3]; Biological Replicate 2, Hill equation, read-out: Khalf (ammonium)): 97 µM

B1: Helicobacter pylori glutamine synthetase (HpGS), SEQ ID NO: 2 (Helicobacter pylori 26695) (protein)
chain: MIVRTQNSESKIKEFFEFCKENEVEFVDFRFSDIKGTWNHIAYSFGALTHGMLKEGIPFDASCFKGWQGIEHSDMILTPDLVRYFIDPFSADVSVVVFCDVYDVYKNQPYEKCPRSIAKKALQHLKDSGLGDVAYFGAENEFFIFDSIKIKDASNSQYYEVDSEEGEWNRDRSFENGVNFGHRPGKQGGYMPVPPTDTMMDIRTEIVKVLNQVGLETFVVHHEVAQAQGEVGVKFGDLVEAADNVQKLKYVVKMVAHLNGKTATFMPKPLYGDNGSGMHTHVSVWKNNENLFSGETYKGLSEFALHFLGGVLRHARGLAAFTNASTNSYKRLIPGYEAPSILTYSANNRSASVRIPYGISKNSARFEFRFPDSSSNPYLAFAAILMAGMDGVKNKIDPGEAMDINLFKLTLDEIREKGIKQMPHTLRRSLEEMLADKQYLKESQVFSEEFIQAYQSLKFNAEVFPWESKPHPFEFITTYSC
notes: BpsA-coupled assay
Q: With B1 as the molecule, how does the K0.5 [4, 6] read?
A: 350 µM

Q: What about the kcat [4, 6] of the same molecule?
A: 0.28 s⁻¹

Q: What about the K0.5 [4, 7] of the same molecule?
A: 350 µM

Q: What about the kcat [4, 7] of the same molecule?
A: 0.45 s⁻¹

B2: Rhodospirillum centenum arginine dihydrolase (RcArgZ), truncated: deletion of residues 2 to 18 of UniProt B6IRA8, SEQ ID NO: 3 (Rhodospirillum centenum SW) (protein)
chain: APPRIIMCAPDHFEVSYTINPWMRPDEWEARRSELSGAAAAGWSALRRRLQQLGAAVELVAPRSGLPDLVFTANAAVVLDGKALVARFRHPERRPEEPHFRRFFDGLAARGLLDEVHDMPPGVCLEGAGDCVHDAGRGVFFLGHGFRSDREAAAVVADLFGEEVEPLELVDPRFYHMDTALCPLSGGEVLYVPGAFSAEGRGRLRERIGADRLIEVPEADAVRLAANAVNLGRDVVLAEASDDLKAALAERGYSVHEVPIRSFGLSGGSAFCLTLRLDRRSNRRSGRPVGGTGPGAAADAPGQPALLD
notes: synthetic gene (Twist Bioscience); GDH-coupled assay
Q: What does the source list for B2?
A: Km [5]: 360 ± 30 µM; kcat [5]: 10.4 s⁻¹

From patent US20250003940A1, “BIOSENSOR, BIOSENSOR COMPONENTS, AND USE THEREOF” (VICTORIA LINK LIMITED, priority 2021, published 2025)
